US20250136553A1, “ACYLSULFONAMIDE KAT6A INHIBITORS” (Olema Pharmaceuticals, Inc., priority 2023, published 2025)
pIC50: −log10 of the molar value.

Molecular target: human-KAT6A (MYST domain 507-778 aa) (Homo sapiens (Human), UniProt Q92794)
Assay: KAT6A biochemical assay (TR-FRET)
Settings: @ 1 μM; reported where IC50 could not be determined; read-out: Percent inhibition at specific concentration (KAT6A)
Procedure, shortened: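 KAT6A MYST domain preincubated with compound 30 min at 25° C, then reacted 60 min at 25° C with 200 nM biotin-H4 peptide and 600 nM acetyl-CoA (final). Europium anti-acetyl-lysine/streptavidin-APC TR-FRET read (Ex 340, Em 615/665 nm); % inhibition from 665/615 ratio, IC50 by sigmoidal fit.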

Sequence of human-KAT6A (MYST domain 507-778 aa) (Q92794 507-778): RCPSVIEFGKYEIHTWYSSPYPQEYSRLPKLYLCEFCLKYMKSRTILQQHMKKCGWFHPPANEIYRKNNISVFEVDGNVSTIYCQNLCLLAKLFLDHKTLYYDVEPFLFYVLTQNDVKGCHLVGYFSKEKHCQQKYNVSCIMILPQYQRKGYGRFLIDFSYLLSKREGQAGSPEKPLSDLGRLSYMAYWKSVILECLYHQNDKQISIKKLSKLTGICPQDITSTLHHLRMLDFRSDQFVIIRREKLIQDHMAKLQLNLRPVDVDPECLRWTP

| Structure (SMILES) | inhibition at 1 µM [%] |
| --- | --- |
| COc1ccc(C(C)(C)C)cc1S(=O)(=O)NC(=O)c1ccc(Cn2cccn2)n(C)c1=O [Compound 267, 6-((1H-Pyrazol-1-yl)methyl)-N-((5-(tert-butyl)-2-methoxyphenyl)sulfonyl)-1-methyl-2-oxo-1,2-dihydropyridine-3-carboxamide] | 45 |
| COc1nc(C(=O)N[S@](=N)(=O)c2ccccc2F)ccc1Cn1cccn1 [Compound 307b, (S)-5-((1H-pyrazol-1-yl)methyl)-N-(2-fluorophenylsulfonimidoyl)-6-methoxypicolinamide] | 46 |

Same assay, conditions: @ 10 μM; reported where IC50 could not be determined; read-out: Percent inhibition at specific concentration (KAT6A)

| Structure (SMILES) | inhibition at 10 µM [%] |
| --- | --- |
| COc1cc(Cn2cccn2)cc(C(=O)NS(=O)(=O)c2c(OC)cccc2OC)c1 [Compound 6, 3-((1H-pyrazol-1-yl)methyl)-N-((2,6-dimethoxyphenyl)sulfonyl)-5-methoxybenzamide] | 26 |

Same assay, conditions: TR-FRET; histone H4 peptide 200 nM, acetyl-CoA 600 nM; read-out: KAT6A IC50

| Structure (SMILES) | pIC50 |
| --- | --- |
| COc1cc(C(=O)N[S@@](=N)(=O)c2c(OC)cccc2OC)ccc1Cn1cccn1 [Compound 295a, (R)-4-((1H-pyrazol-1-yl)methyl)-N-(2,6-dimethoxyphenylsulfonimidoyl)-3-methoxybenzamide] | 7.80 |
| COc1ccc(C(C)(C)C)cc1S(=O)(=O)NC(=O)c1ccc(Cn2cccn2)c(C#N)c1 [Compound 18] | 7.15 |
| COc1ccc(Cl)c(OC)c1[S@](=N)(=O)NC(=O)c1ccc(Cn2cccn2)c(OC)n1 [Compound 293a, (R)-5-((1H-pyrazol-1-yl)methyl)-N-(3-chloro-2,6-dimethoxyphenylsulfonimidoyl)-6-methoxypicolinamide] | 6.43 |
| COc1cc(C(=O)NS(=O)(=O)c2ccccc2OC2CC2)ccc1Cn1cccn1 [Compound 313, 4-((1H-pyrazol-1-yl)methyl)-N-((2-cyclopropoxyphenyl)sulfonyl)-3-methoxybenzamide] | 7.49 |
| COc1cc(C(=O)NS(=O)(=O)c2c(OC)ccc(C)c2OC)ccc1Cn1cccn1 [Compound 60, 4-((1H-pyrazol-1-yl)methyl)-N-((2,6-dimethoxy-3-methylphenyl)sulfonyl)-3-methoxybenzamide] | 8.10 |
| COc1ccc(S(=O)(=O)NC(=O)c2ccc(Cn3cccn3)c(OC)c2)cc1Cl [Compound 311, 4-((1H-pyrazol-1-yl)methyl)-N-((3-chloro-4-methoxyphenyl)sulfonyl)-3-methoxybenzamide] | 6.87 |
| COc1cc(C(=O)NS(=O)(=O)c2c(OC)cccc2OC)ccc1COc1ncccn1 [Compound 50, N-((2,6-dimethoxyphenyl)sulfonyl)-3-methoxy-4-((pyrimidin-2-yloxy)methyl)benzamide] | 7.02 |
| COc1nc(C(=O)NS(=O)(=O)c2cccc(C(C)(C)O)c2)ccc1Cn1cccn1 [Compound 237, 5-((1H-pyrazol-1-yl)methyl)-N-((3-(2-hydroxypropan-2-yl)phenyl)sulfonyl)-6-methoxypicolinamide] | 7.36 |
| COc1ccc(Cl)c(OC)c1[S@@](=N)(=O)NC(=O)c1ccc(Cn2cccn2)c(OC)n1 [Compound 293b, (S)-5-((1H-pyrazol-1-yl)methyl)-N-(3-chloro-2,6-dimethoxyphenylsulfonimidoyl)-6-methoxypicolinamide] | 7.80 |
| COc1nc(C(=O)N[S@@](=N)(=O)c2cccc3c2OCC3)ccc1Cn1cccn1 [Compound 303a, (R)-5-((1H-pyrazol-1-yl)methyl)-N-(2,3-dihydrobenzofuran-7-sulfonimidoyl)-6-methoxypicolinamide] | 7.59 |
| COc1cc(C(=O)NS(=O)(=O)c2cc(Br)ccc2OC)ccc1Cn1cccn1 [Compound 24, 4-((1H-pyrazol-1-yl)methyl)-N-((5-bromo-2-methoxyphenyl)sulfonyl)-3-methoxybenzamide] | 7.92 |
| COc1cc(C(=O)NS(=O)(=O)c2cc(Cl)cc3c2OCC3)ccc1Cn1cccn1 [Compound 309, 4-((1H-pyrazol-1-yl)methyl)-N-((5-chloro-2,3-dihydrobenzofuran-7-yl)sulfonyl)-3-methoxybenzamide] | 7.77 |
| COc1cc(C)cc(OC)c1[S@@](=N)(=O)NC(=O)c1ccc(Cn2cccn2)c(OC)n1 [Compound 306b, (S)-5-((1H-pyrazol-1-yl)methyl)-N-(2,6-dimethoxy-4-methylphenylsulfonimidoyl)-6-methoxypicolinamide] | 6.55 |
| COc1ccc(C(C)(C)C)cc1S(=O)(=O)NC(=O)c1ccc(Cn2cccn2)c(C(F)(F)F)c1 [Compound 25, 4-((1H-pyrazol-1-yl)methyl)-N-((5-(tert-butyl)-2-methoxyphenyl)sulfonyl)-3-(trifluoromethyl)benzamide] | 8.00 |

Now from value to molecule:

| pIC50 | Structure (SMILES) |
| --- | --- |
| 7.09 | COc1cccc(OC)c1S(=N)(=O)NC(=O)c1ccc(Cn2cccn2)c(OC)n1 (single isomer, unassigned) [Compound 243b] |
| 7.15 | COc1cccc(OC)c1S(=O)(=O)NC(=O)c1ccc(Cn2cccn2)c(C)n1 [Compound 209, 5-((1H-pyrazol-1-yl)methyl)-N-((2,6-dimethoxyphenyl)sulfonyl)-6-methylpicolinamide] |
| 7.72 | CCOc1nc(C(=O)NS(=O)(=O)c2c(OC)cccc2OC)ccc1Cn1cccn1 [Compound 289, 5-((1H-pyrazol-1-yl)methyl)-N-((2,6-dimethoxyphenyl)sulfonyl)-6-ethoxypicolinamide] |
| 7.66 | CCOc1cccc(OC)c1[S@@](=N)(=O)NC(=O)c1ccc(Cn2cccn2)c(OC)n1 [Compound 294b, (S)-5-((1H-pyrazol-1-yl)methyl)-N-(2-ethoxy-6-methoxyphenylsulfonimidoyl)-6-methoxypicolinamide] |
| 7.96 | CCOc1cccc(OC)c1S(=O)(=O)NC(=O)c1ccc(Cn2cccn2)c(OC)c1 [Compound 67, 4-((1H-pyrazol-1-yl)methyl)-N-((2-ethoxy-6-methoxyphenyl)sulfonyl)-3-methoxybenzamide] |
| 7.85 | COc1cccc(OC2CC2)c1S(=O)(=O)NC(=O)c1ccc(Cn2cccn2)c(OC)n1 [Compound 279, 5-((1H-pyrazol-1-yl)methyl)-N-((2-cyclopropoxy-6-methoxyphenyl)sulfonyl)-6-methoxypicolinamide] |
| 6.98 | COc1cc(C(=O)NS(=O)(=O)c2c(OC)cccc2OC)cnc1Cn1cccn1 [Compound 202, 6-((1H-pyrazol-1-yl)methyl)-N-((2,6-dimethoxyphenyl)sulfonyl)-5-methoxynicotinamide] |
| 6.57 | CCOc1cccc(OC)c1[S@](=N)(=O)NC(=O)c1ccc(Cn2cccn2)c(OC)n1 [Compound 294a, (R)-5-((1H-pyrazol-1-yl)methyl)-N-(2-ethoxy-6-methoxyphenylsulfonimidoyl)-6-methoxypicolinamide] |
| 7.64 | COc1cccc(OC)c1S(=N)(=O)NC(=O)c1ccc(Cn2cccn2)c(OC)n1 (stereo not shown) [Compound 243, 5-((1H-pyrazol-1-yl)methyl)-N-(2,6-dimethoxyphenylsulfonimidoyl)-6-methoxypicolinamide] |
| 8.00 | CCc1ccc(OC)c(S(=O)(=O)NC(=O)c2ccc(Cn3cccn3)c(OC)n2)c1OC [Compound 225, 5-((1H-pyrazol-1-yl)methyl)-N-((3-ethyl-2,6-dimethoxyphenyl)sulfonyl)-6-methoxypicolinamide] |
| 6.61 | COc1cc(Cn2cccn2)ccc1C(=O)NS(=O)(=O)c1c(OC)cccc1OC [Compound 1, 4-((1H-pyrazol-1-yl)methyl)-N-((2,6-dimethoxyphenyl)sulfonyl)-2-methoxybenzamide] |
